Measurements published in PubChem BioAssay AID1963870 (Molecular Pharmacology Branch, DTP, NCI, 2024).

Test system: 292921-168-R-J2-PDC KRAS tumor spheroid viability
Test: Anticancer human tumor 292921-168-R-J2-PDC patient-derived pancreatic carcinoma cell line growth inhibition [KRAS2]
Settings: spheroids with HUVEC and MSC; for viability, T/C: stronger effect = lower value
Text: Multicellular complex tumor spheroid response to RAS pathway inhibitors in combination with a targeted agents in patient-derived cell lines with oncogenic KRAS variants from multiple cancer types
A high-throughput screen of multi-cell type tumor spheroids was designed to identify active combinations of targeted small molecules and KRAS pathway inhibitors. Complex spheroids include a stromal component modeled by human endothelial cells (HUVEC) and fibroblasts modeled by human mesenchymal stem cells (MSCs). The concentration ranges selected for each drug and investigational agent were based upon clinically achievable concentrations if the clinical Cmax of the agent was known.
Compounds. The drugs and investigational agents: BI-3406 (NSC825286), BAY-293 (NSC824723), batoprotafib (TNO155; NSC825523), sotorasib (AMG 510; NSC818433), MRTX1257 (NSC819558), elimusertib (BAY 1895344; NSC800525), molibresib (GSK525762; NSC774829), temuterkib (LY3214996; NSC803410), venetoclax (NSC766270), alisertib (NSC759677), olaparib (NSC753686), talazoparib (NSC767125), erdafitinib (NSC781556), ipatasertib (NSC767898), cabozantinib (NSC761068), nintedanib (NSC756659), abemaciclib (NSC768073), docetaxel (NSC628503), trametinib (NSC758246), and sapanisertib (NSC764658) were obtained from the National Cancer Institute (NCI) Developmental Therapeutics Program Chemical Repository. The FDA-approved anticancer drug set is available from the Developmental Therapeutics Program. […] The stock solutions were prepared in dimethyl sulfoxide (DMSO, Sigma-Aldrich, St. Louis, MO, cat. D2650) at 800-fold the tested concentration and stored at -70 degrees C prior to their use. All drugs and investigational agents were tested over a range starting from a high concentration at or near the clinical Cmax and decreasing in half-log increments. If the clinical Cmax for an agent had not been determined, the highest concentration tested was 10 microM.
Cell Culture. All cells were maintained in an incubator at 37 degrees C and 5% CO2 with 95% humidity. The PDC lines were cultured according to standard operating procedures established by the NCI PDMR (https://pdmr.cancer.gov/sops/default.htm). Briefly, all PDCs were thawed and cultured in Matrigel-coated flasks prepared with a working solution of 1X Ham's F-12 nutrient mix, without supplementation (Invitrogen, Waltham, MA, cat. 11765054), 100 U/mL penicillin-streptomycin (Invitrogen, cat. 15140122), and 2.5% Matrigel (Corning Inc., Corning, NY, cat. 354248) for the first three passages. All PDCs were cultured in complete DMEM/F-12 media containing advanced DMEM/F-12 (Invitrogen, cat. 12634028), 4.9% defined fetal bovine serum, heat inactivated (HyClone Laboratories Inc., Logan, UT, cat. SH30070.03HI), 389 ng/mL hydrocortisone (Sigma-Aldrich, cat. H4001), 9.7 ng/mL human EGF recombinant protein (Invitrogen, cat. PHG0313), 23.4 microg/mL adenine (Sigma-Aldrich, cat. A2786), 97.3 U/mL penicillin-streptomycin (Invitrogen, cat. 15140122), 1.9 mM L-glutamine (Invitrogen, cat. 25030081), and 9.7 microM Y-27632 dihydrochloride (Tocris Bioscience, Bristol, United Kingdom, cat. 1254). The PDCs were cultured in complete DMEM/F12 media without 9.7 microM Y-27632 dihydrochloride for at least two passages prior to the screen. The established cell line HOP-62 was cultured in RPMI 1640 medium, HEPES (Invitrogen, cat. 22400105) with 10% defined fetal bovine serum (HyClone Laboratories Inc., cat. SH30070.03) and 2 mM L-glutamine (Invitrogen, cat. 25030081). The pooled donor HUVEC were cultured in endothelial cell growth medium 2 (PromoCell, Heidelberg, Germany, cat. C-22011) and the hMSC were cultured in mesenchymal stem cell growth medium 2 (PromoCell, cat. C-28009). For all experiments, HUVEC and hMSC were used at passages </=5, while the malignant cell lines were used at passages </=15. […]

[1] = curve of first compound, second compound 0.1 µM
[2] = curve of first compound, second compound 0.316 µM
[3] = curve of first compound, second compound 1 µM
[4] = curve of first compound, second compound 3.16 µM
[5] = second compound 0.1 µM, first compound 0.0316 µM
[6] = second compound 0.1 µM, first compound 0.1 µM
[7] = second compound 0.316 µM, first compound 0.0316 µM
[8] = second compound 0.316 µM, first compound 0.1 µM
[9] = second compound 1 µM, first compound 0.0316 µM
[10] = second compound 1 µM, first compound 0.1 µM
[11] = second compound 3.16 µM, first compound 0.0316 µM
[12] = second compound 3.16 µM, first compound 0.1 µM
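Note: drug exposure lasted seven days after spheroids formed for three days.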
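Throughout, for viability, T/C: percent of DMSO vehicle control viability which is 100%.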

## Cn1nccc1Nc1nccc(-c2cc3c(s2)C(C)(C)N(CCN2CCOCC2)C3=O)n1 + C=CC(=O)N1CCN(c2nc(OCC3CCCN3C)nc3c2CCN(c2cccc4cccc(C)c24)C3)CC1CC#N
Curve of first compound, second compound 0.0316 µM
  IC50: 93.1 nM
[1]
  IC50: 77.8 nM
[2]
  IC50: 59 nM
[3]
  IC50: < 31.6 nM
[4]
  IC50: < 31.6 nM
Second compound 0.0316 µM, first compound 0.0316 µM
  viability, T/C: 86.7%
Second compound 0.0316 µM, first compound 0.1 µM
  viability, T/C: 47.5%
Second compound 0.0316 µM, first compound 0.316 µM
  viability, T/C: 20.6%
Second compound 0.0316 µM, first compound 1 µM
  viability, T/C: 13%
Second compound 0.0316 µM, first compound 3.16 µM
  viability, T/C: 11.6%
Second compound 0.0316 µM, first compound 10 µM
  viability, T/C: 11.9%
[5]
  viability, T/C: 80.2%
[6]
  viability, T/C: 41.4%
Second compound 0.1 µM, first compound 0.316 µM
  viability, T/C: 21.6%
Second compound 0.1 µM, first compound 1 µM
  viability, T/C: 12.5%
Second compound 0.1 µM, first compound 3.16 µM
  viability, T/C: 11.1%
Second compound 0.1 µM, first compound 10 µM
  viability, T/C: 11.6%
[7]
  viability, T/C: 63.5%
[8]
  viability, T/C: 38.6%
Second compound 0.316 µM, first compound 0.316 µM
  viability, T/C: 16.2%
Second compound 0.316 µM, first compound 1 µM
  viability, T/C: 12.2%
Second compound 0.316 µM, first compound 3.16 µM
  viability, T/C: 9.88%
Second compound 0.316 µM, first compound 10 µM
  viability, T/C: 11.9%
[9]
  viability, T/C: 30.9%
[10]
  viability, T/C: 18.4%
Second compound 1 µM, first compound 0.316 µM
  viability, T/C: 8.49%
Second compound 1 µM, first compound 1 µM
  viability, T/C: 8.54%
Second compound 1 µM, first compound 3.16 µM
  viability, T/C: 7.25%
Second compound 1 µM, first compound 10 µM
  viability, T/C: 8.46%
[11]
  viability, T/C: 0.45%
[12]
  viability, T/C: 0.11%
Second compound 3.16 µM, first compound 0.316 µM
  viability, T/C: 0.11%
Second compound 3.16 µM, first compound 1 µM
  viability, T/C: 0.1%
Second compound 3.16 µM, first compound 3.16 µM
  viability, T/C: 0.1%
Second compound 3.16 µM, first compound 10 µM
  viability, T/C: 0.16%

## CN(C)C/C=C/C(=O)Nc1cc2c(Nc3ccc(F)c(Cl)c3)ncnc2cc1O[C@H]1CCOC1 + C=CC(=O)N1CCN(c2nc(=O)n(-c3c(C)ccnc3C(C)C)c3nc(-c4c(O)cccc4F)c(F)cc23)C(C)C1
[1]
  IC50: > 100 nM
[2]
  IC50: > 100 nM
[3]
  IC50: > 100 nM
[4]
  IC50: > 100 nM
Curve of first compound, second compound 10 µM
  IC50: < 0.316 nM
Second compound 0.1 µM, first compound 0.000316 µM
  viability, T/C: 119%
Second compound 0.1 µM, first compound 0.001 µM
  viability, T/C: 110%
Second compound 0.1 µM, first compound 0.00316 µM
  viability, T/C: 94%
Second compound 0.1 µM, first compound 0.01 µM
  viability, T/C: 86.2%
[5]
  viability, T/C: 95.3%
[6]
  viability, T/C: 76.5%
Second compound 0.316 µM, first compound 0.000316 µM
  viability, T/C: 118%
Second compound 0.316 µM, first compound 0.001 µM
  viability, T/C: 114%
Second compound 0.316 µM, first compound 0.00316 µM
  viability, T/C: 104%
Second compound 0.316 µM, first compound 0.01 µM
  viability, T/C: 104%
[7]
  viability, T/C: 96.4%
[8]
  viability, T/C: 89.4%
Second compound 1 µM, first compound 0.000316 µM
  viability, T/C: 117%
Second compound 1 µM, first compound 0.001 µM
  viability, T/C: 107%
Second compound 1 µM, first compound 0.00316 µM
  viability, T/C: 106%
Second compound 1 µM, first compound 0.01 µM
  viability, T/C: 90.7%
[9]
  viability, T/C: 101%
[10]
  viability, T/C: 87.2%
Second compound 3.16 µM, first compound 0.000316 µM
  viability, T/C: 71.7%
Second compound 3.16 µM, first compound 0.001 µM
  viability, T/C: 67%
Second compound 3.16 µM, first compound 0.00316 µM
  viability, T/C: 66.6%
Second compound 3.16 µM, first compound 0.01 µM
  viability, T/C: 71.9%
[11]
  viability, T/C: 68.4%
[12]
  viability, T/C: 53.5%
Second compound 10 µM, first compound 0.000316 µM
  viability, T/C: 29.3%
Second compound 10 µM, first compound 0.001 µM
  viability, T/C: 24.5%
Second compound 10 µM, first compound 0.00316 µM
  viability, T/C: 22.8%
Second compound 10 µM, first compound 0.01 µM
  viability, T/C: 23%
Second compound 10 µM, first compound 0.0316 µM
  viability, T/C: 20.9%
Second compound 10 µM, first compound 0.1 µM
  viability, T/C: 19.2%

## CC1OCC2(CCN(c3cnc(Sc4ccnc(N)c4Cl)c(N)n3)CC2)C1N (centres undefined)
Compound 0.0316 µM
  viability, T/C: 86.4% [middle of 4 runs]
Compound alone, run of 08/26/2021
  IC50: 696 nM [middle of 5 runs]
Compound alone, run of 09/02/2021
  IC50: 524 nM [middle of 5 runs]
Curve of compound
  IC50: 619 nM [middle of 5 runs]
